Reference: patent publication US20050176746A1, “Use of compounds that are effective as selective opiate receptor modulators” (priority 2002, published 2005)

Tests used:
[1] = test system: healthy subjects; test: Satiety test (nutrient drink; maximum volume ingested and postprandial symptoms), Phase I study, 7-day treatment; assay type: in vivo, human
Text: (§1) A a single center, randomized, double-blind, placebo controlled, parallel group Phase I study has been performed. The trial evaluates the effects of a 7-day treatment with 2 different doses of the peripherally selective opiate receptor modulator asimadoline (N-methyl-N-[(1S)-1-phenyl-2-((3S)-3-hydroxypyrrolidin-1-yl)ethyl]-2,2-diphenylacetamide hydrochloride, EMD 61 753) on gastrointestinal and colonic transit and sensorimotor functions in healthy subjects in comparison to placebo.
All subjects have undergone a satiety test prior to and under medication, a scintigraphic gastric and colonic transit test, and, after overnight bowel preparation, a barostat test assessing colonic compliance and colonic sensation prior to and under medication, and fasting colonic tone and colonic response to a standardized meal under medication.
Specific aims of this study have been the comparison of the effects of 7 day treatment with placebo and three doses of asimadoline as described above on: • satiety after ingestion of a nutrient drink • colonic aggregate sensation score in response to distension in healthy subjects • thresholds for colonic sensation of gas and pain in response to distension in healthy subjects • fasting colonic compliance and tone • postprandial tonic response to standard meal ingestion
(§2) A further aim of the study was to compare the gastrointestinal and colonic transit profiles during the 7-day treatment. The studies on lower dosage (0.15 mg/kg and 0.5 mg/kg versus placebo) were performed separately as Part A and the studies on higher dosage (1.5 mg/kg versus placebo) were performed separately as Part B of the studies (see FIGS. 1 to 4).
The primary endpoint in the satiety test is difference to baseline in the aggregate satiety score 30 min after full satiety.
The analysis of primary motility endpoints (gastric residual percent at 2 hrs, colonic filling (CF) percent at 6 hrs. and colonic geometric center at 24 hrs)and the maximum satiety volume (at day 5) is based on one-way analysis of variance or analysis of covariance methods. The proportions (GE at 2 hrs and CF at 6 hrs)may warrant transformation (e.g., sin^−1{square root}) prior to analysis to stabilize variation across treatment groups. Analysis of the satiety volumes incorporates the baseline value as a covariate in addition to BMI; or alternatively, the relative changes (log [day 5 volume/baseline volume]) are analyzed with BMI as a covariate.

[2] = test system: colon of healthy subjects; test: Barostat test (intubated colonic procedure: fasting colonic volume, sensation and pain to distension), Phase I study, 7-day treatment; assay type: in vivo, human; design: key to sensation to distension (VAS score) / pain to distension (VAS score): 100 mm visual analog scale
Text: as §1, §2
All subjects are presented to the General Clinical Research Center at Charlton 7, General Clinical Research Center, on visit 3 after overnight bowel preparation with the oral colonic lavage solution (2-5 L of polyethylene glycol 3350 and electrolyte solution, NuLytely™, Abbott Laboratories, Chicago. IL), and a 12-hour fast.
Flexible colonoscopy is performed to evaluate the left side of the colon and to place a teflon guidewire into the proximal colon under fluoroscopic control. The endoscope is withdrawn.
A barostat catheter is inserted into the colon along the guidewire so that the barostat balloon is located in the upper sigmoid or descending colon. The catheter is connected to a barostat machine using an infinitely compliant 10-cm long balloon with a maximum volume of 600 cc (Hefty Baggies, Mobil Chemical Co., Pittsford, N.Y.) linked to an electronic barostat (Mayo rigid barostat, Mayo Foundation Engineering Department, Rochester, Minn.) which has a rigid piston. The manometric portion comprises six waterperfused (0.4 ml/min) pneumohydraulic sensors, three in the descending colon (sensor numbers 1-3) and three in the sigmoid colon (sensor numbers 4-6). The manometric sensors are 5 cm apart, while the first and second sensors are 5 cm oral and caudal to the balloon respectively. To decrease the effects of abdominal viscera on the balloon volume, the studies are performed with the subjects in a semi-prone position during the entire duration of the study.
Previous studies have shown that an initial “conditioning” distension to 20 mmHg renders subsequent assessments of compliance and perception more reproducible [15. 47. 48]. Following the conditioning distension, colonic compliance and sensory thresholds are measured by ramp inflation with increments of 4 mmHg, o steps at 30 second intervals from 0 to 44 mmHg; thresholds for first sensation and sensation of pain are thus determined using the ascending method of limits.
Immediately prior to assessment of colonic sensation, four 100 mm visual analog scales (VAS) scales using the anchor points “tired-energetic”, “peaceful-tense” and “worried-relaxed” and “active-drowsy” are used to determine the level of arousal, anxiety or stress being experienced by the subject. […] Subsequently, randomized-order phasic distensions at 8, 16, 24, and 32 mm Hg above operating pressure are applied to measure the sensations of gas or pain.
For rating sensory perception, the participants are asked to mark two separate VAS for abdominal pain and feeling of gas at a standardized time, 20 seconds after the distension had commenced. The VAS are anchored at the ends by the descriptions “unnoticeable” and “unbearable”. During assessment of sensation, verbal interaction between the subject and investigator is minimized.
Colonic sensation is assessed before and 1 h after drug administration during the measurement of colonic compliance. This is equivalent to finding the threshold pressures or the initial perception and pain perception during sequential pressure increments using the ascending method of limits.
The participant is allowed to rest for 15 minutes. […]

CN(C(=O)C(c1ccccc1)c1ccccc1)[C@H](CN1CC[C@H](O)C1)c1ccccc1.Cl [asimadoline, N-methyl-N-[(1S)-1-phenyl-2-((3S)-3-hydroxypyrrolidin-1-yl)ethyl]-2,2-diphenylacetamide hydrochloride]
maximum ingested volume versus placebo (in words) ([1]; 0.15 mg/kg): increase the maximum ingested volume slightly versus placebo | aggregate postprandial symptoms (VAS score) ([1]; 0.15 mg/kg, Part A (placebo 180)): 187 | maximum volume ingested (satiety test) ([1]; 0.15 mg/kg, study Part A (placebo 1280 ml)): 1425 mL | maximum ingested volume versus placebo (in words) ([1]; 0.5 mg/kg): increase the maximum ingested volume significantly versus placebo | aggregate postprandial symptoms (VAS score) ([1]; 0.5 mg/kg, Part A (placebo 180)): 170 | maximum volume ingested (satiety test) ([1]; 0.5 mg/kg, study Part A (placebo 1280 ml)): 1470 mL | postprandial symptoms with higher ingested volume (in words) ([1]; 1.5 mg/kg): symptoms increased with increased volume ingested | aggregate postprandial symptoms (VAS score) ([1]; 1.5 mg/kg, Part B (placebo 162)): 192 | maximum volume ingested (satiety test) ([1]; 1.5 mg/kg, study Part B (placebo 1300 ml)): 1390 mL | postprandial symptoms with higher ingested volume (in words) ([1]; dosis in the range of 0.5 mg/kg): not associated with an increase in symptoms | maximum ingested volume, dose dependency (in words) ([1]; higher concentration (1.5 mg/kg)): ceiling effect established | maximum ingested volume, dose dependency (in words) ([1]; lower end of the dosis range (0.15 mg/kg)): dose response effect established | fasting volume of the colon at 0 mm pressure ([2]; 0.15 mg/kg, Part A (placebo 1 ml)): 8 mL | fasting volume versus placebo (in words) ([2]; 0.5 mg/kg): significantly higher | fasting volume of the colon at 0 mm pressure ([2]; 0.5 mg/kg, Part A (placebo 1 ml)): 21 mL | perception of distension (in words) ([2]; 0.5 mg/kg, low pressure (8 mm Hg), effect decreases by increasing pressure): significantly reduced | fasting volume of the colon at 0 mm pressure ([2]; 1.5 mg/kg, Part B (placebo 6 ml)): 24 mL | pain to distension (VAS score) ([2]; 8 mm Hg, 0.15 mg/kg, Part A (placebo 22)): 25 | sensation to distension (VAS score) ([2]; 8 mm Hg, 0.15 mg/kg, Part A (placebo 37)): 38 | pain to distension (VAS score) ([2]; 8 mm Hg, 0.5 mg/kg, Part A (placebo 22)): 18 | sensation to distension (VAS score) ([2]; 8 mm Hg, 0.5 mg/kg, Part A (placebo 37)): 26 | pain to distension (VAS score) ([2]; 8 mm Hg, 1.5 mg/kg, Part B (placebo 14)): 30 | sensation to distension (VAS score) ([2]; 8 mm Hg, 1.5 mg/kg, Part B (placebo 20)): 31 | pain to distension (VAS score) ([2]; 16 mm Hg, 0.15 mg/kg, Part A (placebo 33)): 28 | sensation to distension (VAS score) ([2]; 16 mm Hg, 0.15 mg/kg, Part A (placebo 43)): 37 | pain to distension (VAS score) ([2]; 16 mm Hg, 0.5 mg/kg, Part A (placebo 33)): 28 | sensation to distension (VAS score) ([2]; 16 mm Hg, 0.5 mg/kg, Part A (placebo 43)): 37 | pain to distension (VAS score) ([2]; 16 mm Hg, 1.5 mg/kg, Part B (placebo 21)): 37 | sensation to distension (VAS score) ([2]; 16 mm Hg, 1.5 mg/kg, Part B (placebo 23)): 38 | pain to distension (VAS score) ([2]; 24 mm Hg, 0.15 mg/kg, Part A (placebo 38)): 30 | sensation to distension (VAS score) ([2]; 24 mm Hg, 0.15 mg/kg, Part A (placebo 43)): 45 | pain to distension (VAS score) ([2]; 24 mm Hg, 0.5 mg/kg, Part A (placebo 38)): 32 | sensation to distension (VAS score) ([2]; 24 mm Hg, 0.5 mg/kg, Part A (placebo 43)): 41 | pain to distension (VAS score) ([2]; 24 mm Hg, 1.5 mg/kg, Part B (placebo 30)): 40 | sensation to distension (VAS score) ([2]; 24 mm Hg, 1.5 mg/kg, Part B (placebo 42)): 41 | pain to distension (VAS score) ([2]; 32 mm Hg, 0.15 mg/kg, Part A (placebo 48)): 42 | sensation to distension (VAS score) ([2]; 32 mm Hg, 0.15 mg/kg, Part A (placebo 54)): 53 | pain to distension (VAS score) ([2]; 32 mm Hg, 0.5 mg/kg, Part A (placebo 48)): 38 | sensation to distension (VAS score) ([2]; 32 mm Hg, 0.5 mg/kg, Part A (placebo 54)): 47 | pain to distension (VAS score) ([2]; 32 mm Hg, 1.5 mg/kg, Part B (placebo 43)): 47 | sensation to distension (VAS score) ([2]; 32 mm Hg, 1.5 mg/kg, Part B (placebo 51)): 43 | perception of pain (in words) ([2]; Barostat test, no dose stated): no significant reduction in the perception of pain could be observed | scores for pain and sensation versus placebo (in words) ([2]; higher doses (1.5 mg/kg)): significantly higher scores for pain and sensation were observed versus placebo
